Test results taken from paper PMC5059921, “Chalepin: isolated from Ruta angustifolia L. Pers induces mitochondrial mediated apoptosis in lung carcinoma cells” (BMC Complementary and Alternative Medicine, 2016).
Like-named read-outs stand apart in the source and are kept apart here.

What was measured:
A549 cell line = experiment: SRB in vitro cytotoxicity screening; assay type: cell-based, human
Protocol: (§1) The human cell lines A549 (lung cancer) and Ca Ski (cervical cancer) were cultured as monolayer in RPMI 1640 growth media whereas HCT-116 (colon cancer) and MRC5 (human normal lung fibroblasts) was cultured in McCoy’s 5A and EMEM medium, respectively. All cells were purchased from the […] (ATCC, USA). All the media were supplemented with 10 % v/v foetal bovine serum (FBS), 100 μg/mL penicillin/streptomycin, and 50 μg/mL amphotericin B. The cells were cultured in a 5 % CO2 incubator at 37 °C.
(§2) The monolayer cell culture was detached using accutase and the cell count was adjusted to 2.5 x10^5 -3.0 x10^5 cells/mL using medium containing feotal bovine serum. The cells were then plated into 96 wells with a cell density of 5000-7000 cells/well and then incubated for 24 h to allow adherence of cells to the base of well of the plates. The media was then removed and 200 μl of fresh media containing different concentration of various extracts or isolated compounds were added. Cisplatin was used as the positive control. The plates were incubated for 24, 48 and 72 h at 37 °C and 5 % CO2. The cytotoxicity of the extracts and isolated compounds were screened using the […] (SRB) assay. This assay was first described by Houghton in 2007 [8]. The incubation was halted by gentle addition of 50 μl ice cold 4 % trichloroacetic acid (TCA) to each well and the plates were incubated at 4 °C for 1 h. Then, the supernatant was discarded and the plates were washed with distilled water for 5 times and then air dried. SRB dye, 50 μl, (0.4 % w/v) was added into each well and the treated cells and control were incubated at room temperature for 30 min. The unbound dye was removed by rapid washing four times with 1 % acetic acid. The plates were then air dried and 100 μl of tris base (10 mM unbuffered, pH 10.5) was added and the plates were shaken at 500 rpm for 5 min to solublize the bound SRB stain. The plates were then read with an ELISA reader (Synergy H1 Hybrid) at an absorbance of 492 nm.

[1] = tested on: MRC5 (human normal lung fibroblasts); experiment: SRB in vitro cytotoxicity screening (toxicity to normal cells); assay type: cell-based; conditions: Homo sapiens, MRC5, isolated compounds, 72 h, read-out: IC50 in μg/ml (μM) (MRC5) 72 h (converted)
Protocol: as §1, §2

A549 cells = experiment: Mitochondrial membrane potential assay (JC-1, flow cytometry); assay type: cell-based; conditions: Homo sapiens, A549, 48 h, read-out: JC-1 dot plot: Viable
Protocol: A lipophilic and cell-permeable fluorochrome JC-1 (5,5’,6,6’-tetrachloro-1,1’,3,3’-tetraethyl benzimidazolyl carbocyanine iodide), was used to measure mitochondrial membrane potential (Δψm) according to the manufacturer’s instructions (BD MitoScreen Kit). The cells (1×10^6) were seeded in tissue culture plates and were treated with 18, 27, 36, and 45 μg/ml of chalepin for 48 h incubation. The cells were then harvested, washed with PBS twice and incubated with JC-1 dye for 15 mins at 37°C. At the end of the incubation, the cells were washed and resuspended with 500 μl of 1x assay buffer (provided in the kit). The intracellular fluorescence signals of JC-1 in the cells were then measured with Accuri C6 flow cytometer. Approximately 10,000 events were recorded per analysis. In healthy cells, JC-1 accumulates as aggregates in the mitochondria and emits red fluorescence. In cells, which have undergone apoptosis, JC-1 remains in monomeric form in the cytoplasm and emits green fluorescence. The red and green fluorescence were detected at FL-2 and FL-1 channels respectively in the flow cytometer. Ratio of mean fluorescence intensity between the FL1 and FL2 channels were calculated and this is used to determine the changes in the mitochondrial membrane potential. The results were analysed by calculating the ratio of JC-1 dimers to JC-1 monomers. A […] ratio indicated a […] membrane depolarization of mitochondria in cells (BD MitoScreen Flow Cytometry Mitochondrial Membrane Potential Detection Kit Instruction Manual). Cells that was untreated in 0.5 % DMSO acted as the control.
JC-1 (5,5’,6,6’-tetrachloro-1,1’,3,3’-tetraethyl benzimidazolyl carbocyanine iodide) mitochondrial membrane potential assay kit by Abcam was used to stain the A549 cells to view the mitochondrial membrane potential (Δψm) changes in cells. Prior to the JC-1 staining initiation, 1x dilution buffer were prepared by adding 10 mL 10× dilution buffer to 90 mL deionized water. The solution was mixed gently and throughly. JC-1 stock (1mM) was diluted to 20 μM working JC-1 solution. This was done by adding 200 μl of JC-1 stock solution into 10 mL of 1× dilution buffer. The cells (1×10^6) were seeded in tissue culture plates and were treated with 18, 27, 36, and 45 μg/ml of chalepin for 48 and 72 h incubation. The cells were then harvested, washed with PBS twice and incubated with JC-1 dye for 20 mins at 37 °C. At the end of the incubation, the cells were washed and resuspended with 1000 μl of 1× dilution buffer. The cells were viewed using a fluorescence microscope at an excitation wavelength of Ex475 ± 20nm and emission wavelength of Em530 ± 15 nm and 590 ± 17.5 nm. The images were captured and recorded.

caspase 9 in A549 cells = experiment: Caspase-9 activity (CaspILLUME, flow cytometry); assay type: cell-based, human; conditions: 45 μg/ml
Protocol: Caspase activity assays were performed according to the instructions in the manual (CaspILLUME, Genetex). Cells were seeded at a density of 1×10^6 cells per culture dish. After being subjected to treatment for 48 and 72 h, the cells were detached with accutase, washed, and resuspended in PBS. Next, 300 μL of each sample was aliquoted into centrifuge tubes, after which 1 μL of fluorescent substrate (FITC-DEVD-FMK for caspase 3 and FITC-LEHD-FMK for caspase 9 activity) was added to each tube and incubated for 1 h at 37°C incubator. At the end of the incubation period, the cells were centrifuged at 3000 rpm for 5 min and the supernatant was removed. After that, the cells were resuspended in 0.5 mL wash buffer (provided in the kit) and centrifuged at 3000 rpm for 5 min. This step was repeated before performing the analysis with flow cytometer (Accuri C6) and a minimum of 10,000 events were acquired for each replicate.

C=CC(C)(C)c1cc2cc3c(cc2oc1=O)O[C@H](C(C)(C)O)C3 [Chalepin, chalepin]
IC50 (A549 cell line; Homo sapiens, A549, 48 h, isolated compounds, 48 h, value in brackets, read-out: IC50 in μg/ml (μM) (A549) 48 h (converted)): 90.1 µM | IC50 (A549 cell line; Homo sapiens, A549, 48 h, isolated compounds, 48 h, read-out: IC50 in μg/ml (μM) (A549) 48 h (converted)): 28.3 ± 1.06 µg/mL | IC50 (A549 cell line; Homo sapiens, A549, 72 h, isolated compounds, 72 h, read-out: IC50 in μg/ml (μM) (A549) 72 h (converted)): 8.69 ± 2.43 µg/mL | IC50 (A549 cell line; Homo sapiens, A549, 72 h, read-out: IC50 in μg/ml (μM) (A549) 72 h, isolated compounds, 72 h, value in brackets): 27.6 µM | IC50 (A549 cell line; isolated compounds, 72 h, value in brackets, read-out: IC50 in μg/ml (μM) (A549) 72 h (converted)): 28 µM | IC50 ([1]; value in brackets): 74.5 µM | IC50 [1]: 23.4 ± 0.6 µg/mL | viability at 18 µg/mL (A549 cells): 78.3% | viability at 27 µg/mL (A549 cells): 68.2% | viability at 36 µg/mL (A549 cells): 54.2% | viability at 45 µg/mL (A549 cells): 52.9% | active caspase 9, V1-R (apoptotic population) (caspase 9 in A549 cells; A549, 48 h): 22.57 ± 0.21% | active caspase 9, V1-R (apoptotic population) (caspase 9 in A549 cells; A549, 72 h): 33.5 ± 0.35% | fold increase in activation of caspase 9 vs untreated control (caspase 9 in A549 cells; A549, 72 h): 8.44 fold
